In brackets after ≈: the same amount, converted by molar mass.
Legend:
Format in all cases: cell-based
A. flavus ATCC204304 = assay: Antifungal activity test, MIC by broth microdilution (CLSI M38-A2); conditions: A. flavus ATCC204304; broth microdilution, 35° C., 24-48 hours, 100% inhibition
Experimental: (§1) The Minimum Inhibitory Concentration (MIC) values of the present compound against yeast and filamentous fungi were determined by broth microdilution assay according to the Clinical Laboratory Standards Institute (CLSI) guidelines outlined in documents M27-A3 and M38-A2. The medium used in the assay consisted of RPMI1640 (with glutamine, without bicarbonate) with 2% glucose and 0.165 mol/L morpholinepropanesulfonic acid (MOPS) with pH adjusted to 7.0 using 1 mol/L sodium hydroxide. The present compound was dissolved in dimethyl sulfoxide (DMSO). A series of two-fold dilutions were prepared in DMSO, and then 2 μL of the diluted compound was added to each well in 96-well sterile plates. Each inoculum was prepared by diluting a suspension of Candida spp. or a conidia suspension of Aspergillus spp. suspended in sterile saline solution, and then 200 μL was added to each well to a predetermined concentration using RPMI/MOPS (final concentration for each solution: approximately 1×10^3 cells/mL and approximately 1×10^4 CFU/mL). Plates of Candida spp. and Aspergillus spp. were incubated at 35° C. for 24-48 hours. The MIC was defined as the lowest concentration giving 100% inhibition compared to the growth control.

A. fumigatus ATCC204305 = assay: as above; conditions: A. fumigatus ATCC204305; broth microdilution, 35° C., 24-48 hours, 100% inhibition
Experimental: as §1

C. albicans ATCC90028 = assay: Antifungal activity test, MIC by broth microdilution (CLSI M27-A3); conditions: C. albicans ATCC90028; broth microdilution, 35° C., 24-48 hours, 100% inhibition
Experimental: as §1

MIC (A. flavus ATCC204304) [µg/mL]	MIC (A. fumigatus ATCC204305) [µg/mL]	MIC (C. albicans ATCC90028) [µg/mL]	SMILES
1 (≈ 0.951 µM)	1 (≈ 0.951 µM)	0.25 (≈ 0.238 µM)	C[C@@H]1[C@H](O)[C@@H](C)/C=C/C=C/C=C/C=C/C=C/C=C/C=C/[C@H](O[C@@H]2O[C@H](C)[C@@H](O)[C@H](N)[C@@H]2O)C[C@@H]2O[C@](O)(C[C@@H](O)C[C@@H](O)[C@H](O)CC[C@@H](O)C[C@@H](O)CC(=O)O[C@H]1C)C[C@H](O)[C@H]2NC(=O)NCC1CN(CCO)C1 [I-158]
1 (≈ 0.975 µM)	1 (≈ 0.975 µM)	0.25 (≈ 0.244 µM)	CC1C=CC=CC=CC=CC=CC=CC=CC(OC2OC(C)C(O)C(N)C2O)CC2OC(O)(CC(O)CC(O)C(O)CCC(O)CC(O)CC(=O)OC(C)C(C)C1O)CC(O)C2NC(=O)NCC(N)CCO (stereo not drawn) [I-163]
0.5 (≈ 0.503 µM)	1 (≈ 1.01 µM)	0.25 (≈ 0.251 µM)	C[C@@H]1[C@H](O)[C@@H](C)/C=C/C=C/C=C/C=C/C=C/C=C/C=C/[C@H](O[C@@H]2O[C@H](C)[C@@H](O)[C@H](N)[C@@H]2O)C[C@@H]2O[C@](O)(C[C@@H](O)C[C@@H](O)[C@H](O)CC[C@@H](O)C[C@@H](O)CC(=O)O[C@H]1C)C[C@H](O)[C@H]2NC(=O)N1CC(O)C1 [I-166]
0.5 (≈ 0.482 µM)	1 (≈ 0.963 µM)	0.25 (≈ 0.241 µM)	C[C@@H]1[C@H](O)[C@@H](C)/C=C/C=C/C=C/C=C/C=C/C=C/C=C/[C@H](O[C@@H]2O[C@H](C)[C@@H](O)[C@H](N)[C@@H]2O)C[C@@H]2O[C@](O)(C[C@@H](O)C[C@@H](O)[C@H](O)CC[C@@H](O)C[C@@H](O)CC(=O)O[C@H]1C)C[C@H](O)[C@H]2NC(=O)NCC1(CO)COC1 [I-193]

Continued, compound first:

SMILES	MIC (A. flavus ATCC204304) [µg/mL]	MIC (A. fumigatus ATCC204305) [µg/mL]	MIC (C. albicans ATCC90028) [µg/mL]
C[C@@H]1[C@H](O)[C@@H](C)/C=C/C=C/C=C/C=C/C=C/C=C/C=C/[C@H](O[C@@H]2O[C@H](C)[C@@H](O)[C@H](N)[C@@H]2O)C[C@@H]2O[C@](O)(C[C@@H](O)C[C@@H](O)[C@H](O)CC[C@@H](O)C[C@@H](O)CC(=O)O[C@H]1C)C[C@H](O)[C@H]2NC(=O)NCC1CN(C)C1 [I-159]	0.5 (≈ 0.49 µM)	1 (≈ 0.979 µM)	0.25 (≈ 0.245 µM)
C[C@@H]1[C@H](O)[C@@H](C)/C=C/C=C/C=C/C=C/C=C/C=C/C=C/[C@H](O[C@@H]2O[C@H](C)[C@@H](O)[C@H](N)[C@@H]2O)C[C@@H]2O[C@](O)(C[C@@H](O)C[C@@H](O)[C@H](O)CC[C@@H](O)C[C@@H](O)CC(=O)O[C@H]1C)C[C@H](O)[C@H]2NC(=O)NC[C@H](N)CO [I-162]	1 (≈ 0.989 µM)	1 (≈ 0.989 µM)	0.25 (≈ 0.247 µM)
C[C@@H]1[C@H](O)[C@@H](C)/C=C/C=C/C=C/C=C/C=C/C=C/C=C/[C@H](O[C@@H]2O[C@H](C)[C@@H](O)[C@H](N)[C@@H]2O)C[C@@H]2O[C@](O)(C[C@@H](O)C[C@@H](O)[C@H](O)CC[C@@H](O)C[C@@H](O)CC(=O)O[C@H]1C)C[C@H](O)[C@H]2NC(=O)NC1CN(CCO)C1 [I-165]	1 (≈ 0.964 µM)	1 (≈ 0.964 µM)	0.25 (≈ 0.241 µM)
C[C@@H]1[C@H](O)[C@@H](C)/C=C/C=C/C=C/C=C/C=C/C=C/C=C/[C@H](O[C@@H]2O[C@H](C)[C@@H](O)[C@H](N)[C@@H]2O)C[C@@H]2O[C@](O)(C[C@@H](O)C[C@@H](O)[C@H](O)CC[C@@H](O)C[C@@H](O)CC(=O)O[C@H]1C)C[C@H](O)[C@H]2NC(=O)NC(CN)CO (stereo partly drawn) [I-169]	1 (≈ 0.989 µM)	1 (≈ 0.989 µM)	0.25 (≈ 0.247 µM)
C[C@@H]1[C@H](O)[C@@H](C)/C=C/C=C/C=C/C=C/C=C/C=C/C=C/[C@H](O[C@@H]2O[C@H](C)[C@@H](O)[C@H](N)[C@@H]2O)C[C@@H]2O[C@](O)(C[C@@H](O)C[C@@H](O)[C@H](O)CC[C@@H](O)C[C@@H](O)CC(=O)O[C@H]1C)C[C@H](O)[C@H]2NC(=O)N1CC(N(C)C)C1 [I-189]	0.5 (≈ 0.49 µM)	0.5 (≈ 0.49 µM)	0.25 (≈ 0.245 µM)
C[C@@H]1[C@H](O)[C@@H](C)/C=C/C=C/C=C/C=C/C=C/C=C/C=C/[C@H](O[C@@H]2O[C@H](C)[C@@H](O)[C@H](N)[C@@H]2O)C[C@@H]2O[C@](O)(C[C@@H](O)C[C@@H](O)[C@H](O)CC[C@@H](O)C[C@@H](O)CC(=O)O[C@H]1C)C[C@H](O)[C@H]2NC(=O)NCC1(C(=O)O)CC1 [I-202]	0.5 (≈ 0.483 µM)	1 (≈ 0.965 µM)	0.5 (≈ 0.483 µM)

Source: patent US10696707B2, “Polyene macrolide derivative” (Shionogi & Co., Ltd., priority 2014, dated 2020)
